The text below walks through data of publication PMC4326827, “Biophysical Studies on Interactions and Assembly of Full-size E3 Ubiquitin Ligase” (The Journal of Biological Chemistry, 2014).

The target in one assay is T1, SOCS2-EloBC (Homo sapiens, UniProt O14508+Q15369+Q15370).
T1 construct: Recombinant human SOCS2 (amino acids 32–198); His6 (cleaved yes); made in house; host or cells: Escherichia coli BL21(DE3)
The assay is described as follows: ITC of GHR peptides and phosphotyrosine into SOCS2-EloBC. The assay is classed as binding. The following applies: 298 K.

The subject of assay [1] is CRL5^SOCS2 (SOCS2, EloB, EloC, Cul5, and Rbx2). Briefly: Peptide bead pull-down from K562 cell lysate, CRL5^SOCS2 components. As to conditions: immobilized peptide beads, human K562 total cell lysate, 2 h at 4 °C, tandem mass tags MS. The assay is classed as binding. From the text: (§1) After washing, bound proteins were eluted with SDS-sample buffer and prepared for tandem mass tags labeling and MS analysis as described previously ([17]).

In assay [2] the target is GHR_pY595-SOCS2-EloBC complex. Briefly: ITC of Cul5NTD into GHR_pY595-SOCS2-EloBC (cooperativity). In kind it is binding, human. As to conditions: titration of Cul5NTD into GHR_pY595-SOCS2-EloBC complex. How it is done:
Experiments were conducted using an iTC200 microcalorimeter instrument (GE Healthcare). […] Peptides and Tyr(P) were dissolved in the same buffer. Obtained data were analyzed and fitted using the Microcal Origin version 7.0 software package. Binding enthalpy, dissociation constants, and stoichiometry were determined by fitting the data using a one-set-of-site binding model.

Assay [3] relates to CRL1^FBXO31 E3 ligase (FBXO31, Rbx1, Cul1, and Skp1). The assay is described as follows: Peptide bead pull-down from K562 cell lysate, CRL1^FBXO31 subunits. In kind it is binding. The following applies: peptide beads, human K562 cell lysate, 2 h at 4 °C, MS.
Text: as §1

The target in another assay is SOCS2 (UniProt O14508). The assay is described as follows: peptide-bead pull-down from lysate, TMT MS. The following applies: reference: GHR_Y595 peptide beads; sites Y595.

*: point of attachment. Biotin = O=C1N[C@H]2[C@H](CS[C@H]2CCCCC(=O)*)N1; Ahx = NCCCCCC(=O)O

T1 sequence (O14508 32-198): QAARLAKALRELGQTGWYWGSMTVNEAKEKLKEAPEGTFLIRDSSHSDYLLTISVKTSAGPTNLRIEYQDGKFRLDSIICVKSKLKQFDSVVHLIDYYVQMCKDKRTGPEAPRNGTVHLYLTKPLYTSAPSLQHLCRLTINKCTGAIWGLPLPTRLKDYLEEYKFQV
T1 sequence (Q15369 17-112 partner limits assumed): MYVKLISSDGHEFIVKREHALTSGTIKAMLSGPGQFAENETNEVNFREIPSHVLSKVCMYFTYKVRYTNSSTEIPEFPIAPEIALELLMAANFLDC
T1 sequence (Q15370 whole entry partner, the tested form may be a part): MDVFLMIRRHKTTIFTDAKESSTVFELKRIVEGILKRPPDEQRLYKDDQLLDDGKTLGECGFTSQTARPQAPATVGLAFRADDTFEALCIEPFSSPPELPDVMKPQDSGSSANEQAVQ

One may read the Kd as the constant that tells how readily two partners part at equilibrium. For the molecule `N[C@@H](Cc1ccc(OP(=O)(O)O)cc1)C(=O)O` [Tyr(P), phosphotyrosine], the Kd at SOCS2-EloBC (350 μM peptide or 2 mM Tyr(P) into 30 μM SOCS2-EloBC, 50 mM HEPES, pH 7.5, 250 mM NaCl, 0.5 mM TCEP, one-set-of-site model) is 191 µM. Also, the “binding affinity weaker than for phosphorylated peptide GHR_pY595” value on SOCS2-EloBC (ratio of Kd) is ~100 -fold.

Turning to “Biotin-aminohexanoic acid-PVPDpYTSIHIV-amide [GHR_pY595-beads]”, the “capture of CRL5^SOCS2 components on peptide beads” value in assay [1] was “endogenous components of CRL5^SOCS2 E3 ligase were only captured by GHR_pY595-beads”.

“Cul5NTD: Recombinant human Cul5NTD (N-terminal domain, residues 1–386) expressed in E. coli”: the “change in Kd or ΔH (cooperativity)” value in assay [2] is listed as “No change in the Kd or ΔH values was observed”.

For “GHR_Y595-containing beads: biotinylated non-phosphorylated GHR_Y595 peptide immobilized on high capacity Neutravidin beads ({Biotin-Ahx}-PVPDYTSIHIV-NH2; SMILES CC[C@H](C)[C@H](NC(=O)[C@H](CO)NC(=O)[C@@H](NC(=O)[C@H](Cc1ccc(O)cc1)NC(=O)[C@H](CC(=O)O)NC(=O)[C@@H]1CCCN1C(=O)[C@@H](NC(=O)[C@@H]1CCCN1C(=O)CCCCCNC(=O)CCCC[C@@H]1SC[C@@H]2NC(=O)N[C@@H]21)C(C)C)[C@@H](C)O)C(=O)N[C@@H](Cc1c[nH]cn1)C(=O)N[C@H](C(=O)N[C@H](C(N)=O)C(C)C)[C@@H](C)CC)”, the “capture of CRL1^FBXO31 subunits” value in assay [3] was “significant recruitment of the four CRL1^FBXO31 subunits was also observed”. Further, in assay [1], the “capture of CRL5^SOCS2 components on peptide beads” value is “no significant capturing from cell lysates was observed”.

On to “growth hormone receptor (GHR) (from UniProt P10912) GHR_pY595 peptide beads”, for which the “binding against the reference” value in the assay with SOCS2 is “gained”.
